Assay results from patent US12063914B2, “DNA sequence that increases odorant receptor representation in the olfactory system” (Research Foundation of the City University of New York, priority 2015, dated 2024).

Experiments:
[1] = at 25° C.; cited from earlier work
M71 OR [2] = biological target: T1, M71 OR (Mus musculus, UniProt Q60893); experiment: In vivo synaptophluorin (SpH) imaging of odor-evoked glomerular activity in 4•M71Cα mice; details: for efficacy [(dF/F)max]: 0.44 uM
T1 construct: the increase of OSNs expressing the M71 OR results in the coalescence of labeled axons; expressed in transfected cells; host or cells: olfactory sensory neurons of living transgenic mice (4•M71Cα, 5•M71Cα), made by pronuclear injection of the M71 minigene
T1 sequence (Q60893 1-309): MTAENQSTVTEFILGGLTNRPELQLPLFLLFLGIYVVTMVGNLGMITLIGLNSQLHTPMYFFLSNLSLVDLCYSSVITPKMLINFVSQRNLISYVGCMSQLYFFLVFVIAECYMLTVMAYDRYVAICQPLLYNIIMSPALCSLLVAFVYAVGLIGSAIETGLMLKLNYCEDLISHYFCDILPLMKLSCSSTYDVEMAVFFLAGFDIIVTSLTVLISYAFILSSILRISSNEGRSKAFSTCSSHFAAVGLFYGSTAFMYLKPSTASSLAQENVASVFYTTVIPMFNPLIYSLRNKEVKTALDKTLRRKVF
Description: Because the M71 OR is dorsally expressed in the olfactory bulb, any cloned OR using the M71 transgenic backbone will coalesce its axons onto dorsally located glomeruli, which makes them accessible for optical imaging. Optical imaging was therefore used to functionally characterize transgenic M71 projections in the OB. To examine their functional properties odor-evoked activity was imaged from the OBs of mice expressing the genetically encoded activity reporter SpH in all mature OSNs. Simultaneously recordings were obtained from mice that are either hemizygous or homozygous for 4•M71Cα (gene-targeted M71-GFP is out crossed) and heterozygous for SpH and identify red M71 glomeruli. Seven different M71-selective ligands were used from ex vivo analysis of genetically defined M71 OSNs in gene-targeted mice: three of these ligands produced responses by SpH imaging: Acetophenone (ACP), 4-methyl acetophenone (4MACP) and 2,4-dimethyl acetophenone (24dMACP) when delivered at different odor dilutions varying between 0% and 15%. The maximum change in fluorescence [(dF/F)max] per odor concentration was calculated for each compound over a 14 s trial period having a pre-odor (3 s), odor (4 s) and post-odor (4 s) acquisition. dF/F values for all glomeruli were calculated with a standardized 50 μm window, which is fully contained in all imaged glomeruli of both hemi and homo 4•M71Cα animals. (FIG. 2A, FIG. 2B and FIG. 2C: Each data point represents the average (dF/F). of 4-16 glomeruli imaged). […] All imaged mice are heterozygous for omp-SpH.
Olfactometry: Odors (purchased form Sigma Aldrich) were delivered using a custom built olfactometer controlled by an Arduino board with custom shields operating Teflon solenoids (Neptune Research) and connected to two Mass Flow Controllers (Alicat Scientific, Inc) to dilute the clean air (N2, max flow is 2 Lpm) and to dilute the odorized air (max flow is 300 SCCM). Nitrogen (N2) was used as the vapor carrier to avoid oxidation. Odor concentrations are expressed a % dilutions of saturated vapor and as molar saturated vapor concentration (μM s.v.), calculated using published vapor pressures at 25° Celsius (US EPA, Estimation Programs Interface Suite, v 4.0. Flow diluted odors were delivered at 2 Lpm mixed prior to the delivery site with air odorized with varying dilutions of odorant taken from the saturated headspace of pre-cleaned amber vials with white polypropylene closures and septum (J. G. Finneran) containing 99% pure odorants. To avoid contamination of the olfactometer, odorized air was never passed through the Teflon valves. Instead, odors were mixed with N2 in T-shaped mixing chambers (Neptune Research) and delivered to the animal's nose using an arduino controlled vacuum system. […] Output of the olfactometer was calibrated using the tracer odor Pinene and a photoionization detector (PID; Aurora Scientific).
In vivo SpH Imaging: Mice were anesthetized using Ketamine (100 mg/kg)/Xylazin (5 mg/kg) and maintained with Isoflurane (2.5% in 02) and immobilized using a stereotactic head holding device (Narishige, Inc.). Optical signals for SpH and mCherry were recorded using an ANDOR Neo 5.5 sCMOS camera connected to a NIKON AZ100 epifluorescence microscope (NIS Elements) with a 4× objective (numerical aperture 0.4). Excitation wavelengths of 475 nm for SpH and 575 nm for mCherry and emission of 520 nm for SpH and 635 nm for mCherry were used to obtain images of the dorsolateral bulb through thinned skull overlaying the bulb of a freely breathing animal. Each imaging trial consisted of a pre-odor (3 s), odor (4 s) and post-odor (4 s) acquisition, with a total acquisition time per trial of 14 s (including 3 s of valve switch delay). Using serial code, the arduino controlling the olfactometer was integrated in the NIS Elements software, so that the entire image acquisition sequence and flow-diluted odor delivery is controlled by the microscope software. […]

M71 OR [3] = biological target: T1, M71 OR; experiment: Two-bottle discrimination behavioral avoidance task (odor detection threshold) with 24dMACP; assay type: in vivo; details: naïve, 10^−6 dilution, 24 hr

Question: For `CC(=O)c1ccc(C)cc1C` [24dMACP, 2,4-dimethyl acetophenone], which “saturated vapor pressure (Ps)” value [1] is on record?
Answer: 0.0811 mmHg

Question: And the “glomerular activity (in vivo SpH imaging)” value (M71 OR [2]; 4•M71Cα animals, vapor phase, odor dilutions 0% to 15%)?
Answer: observed

Question: And the “average highest (dF/F)max” value (M71 OR [2]; hemizygous 4•M71Cα animals, ACP at 1.77 uM, 4MACP at 0.69 uM, 24dMACP at 0.66 uM)?
Answer: 4.15%

Question: What about the “efficacy [(dF/F)max]” value (M71 OR [2]; hemizygous animals) of the same compound?
Answer: 2.92%

Question: And the “efficacy [average (dF/F)max]” value (M71 OR [2]; hemizygous animals, delivered at the same concentration, ˜0.70 uM)?
Answer: 4.15%

Question: And the “highest efficacy [(dF/F)max]” value (M71 OR [2]; homozygous 4•M71Cα animals, ACP at 2.66 uM, 4MACP at 0.69 uM, 24dMACP at 0.46 uM)?
Answer: 4.92%

Question: What about the “average efficacy (of all concentrations and odors)” value (M71 OR [2]; homozygous animals) of the same compound?
Answer: 4.92%

Question: What about the “efficacy [(dF/F)max]” value (M71 OR [2]; homozygous animals) of the same compound?
Answer: 4.92%

Question: And the “preference index (PI) for odorized water” value (M71 OR [3]; unconditioned 4•M71Cα Homo mice)?
Answer: 59%

Question: And the “preference index (PI) for odorized water” value (M71 OR [3]; unconditioned WT mice)?
Answer: 60%
